Laboratory results from patent US10287305B2, “Substituted piperidine compound and use thereof” (Takeda Pharmaceutical Company Limited, priority 2016, dated 2019).

Target: human orexin type 2 receptor (hOX2R) (Homo sapiens (Human), UniProt O43614)
Test: Measurement of orexin type 2 receptor agonist activity (Experimental Example 2-1, FLIPR TETRA, intracellular Ca2+)
Assay type: cell-based
Settings: CHO dhfr- cells expressing hOX2R, FLIPR TETRA, Fluo-4AM; for Emax: read-out: Emax (%)

Sequence of human orexin type 2 receptor (hOX2R) (O43614 whole entry): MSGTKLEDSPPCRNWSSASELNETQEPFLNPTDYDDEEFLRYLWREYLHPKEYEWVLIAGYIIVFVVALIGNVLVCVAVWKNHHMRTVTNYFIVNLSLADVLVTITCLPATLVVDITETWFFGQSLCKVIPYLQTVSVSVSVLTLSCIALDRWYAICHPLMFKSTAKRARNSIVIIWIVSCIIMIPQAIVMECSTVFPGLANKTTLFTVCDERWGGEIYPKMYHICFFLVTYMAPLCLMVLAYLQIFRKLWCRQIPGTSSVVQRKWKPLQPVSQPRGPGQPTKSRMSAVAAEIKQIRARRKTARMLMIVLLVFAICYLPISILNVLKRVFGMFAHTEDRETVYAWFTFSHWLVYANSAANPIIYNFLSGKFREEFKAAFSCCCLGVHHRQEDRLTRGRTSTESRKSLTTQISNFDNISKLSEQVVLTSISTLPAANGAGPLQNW

Structure (SMILES) | EC50 [nM] | Emax [%] | Emax (%)
CS(=O)(=O)N[C@H]1CCCN(C(=O)OC2CC2)[C@H]1CO[C@H]1CC[C@@H](c2cccc(F)c2)CC1 [Example 272, cyclopropyl (2R,3S)-2-(((cis-4-(3-fluorophenyl)cyclohexyl)oxy)methyl)-3-((methylsulfonyl)amino)piperidine-1-carboxylate] | 28 | 96 | 
COC(=O)N1CCC[C@H](NS(C)(=O)=O)[C@@H]1CO[C@H]1CC[C@@]2(CC1)OCc1ccccc12 [Example 274, methyl cis-3-((methylsulfonyl)amino)-2-(((1r,4′r)-3H-spiro[2-benzofuran-1,1′-cyclohexan]-4′-yloxy)methyl)piperidine-1-carboxylate] | 260 | 118 | 
COC(=O)N1CCC[C@H](NS(C)(=O)=O)[C@@H]1CO[C@H]1CC[C@]2(CC1)OCc1ccccc12 [Example 275, methyl cis-3-((methylsulfonyl)amino)-2-(((1s,4′s)-3H-spiro[2-benzofuran-1,1′-cyclohexan]-4′-yloxy)methyl)piperidine-1-carboxylate] | 3100 | 87 | 
CS(=O)(=O)N[C@H]1CCCN(C(=O)OCC(F)(F)F)[C@H]1CO[C@H]1CC[C@@H](c2cccc(F)c2)CC1 [Example 276, 2,2,2-trifluoroethyl (2R,3S)-2-(((cis-4-(3-fluorophenyl)cyclohexyl)oxy)methyl)-3-((methylsulfonyl)amino)piperidine-1-carboxylate] |  | 95 | 
COc1ccccc1[C@H]1CC[C@@H](OC[C@H]2[C@@H](NS(C)(=O)=O)CCCN2C(C)=O)CC1 [Example 291, N-((2R,3S)-1-acetyl-2-(((cis-4-(2-methoxyphenyl)cyclohexyl)oxy)methyl)piperidin-3-yl)methanesulfonamide] | 26 | 98 | 
CS(=O)(=O)N[C@H]1CCCN(C(=O)OCC(F)(F)F)[C@H]1COC1CCN(c2ncccn2)CC1 [Example 305, 2,2,2-trifluoroethyl (2R,3S)-3-((methylsulfonyl)amino)-2-(((1-(pyrimidin-2-yl)piperidin-4-yl)oxy)methyl)piperidine-1-carboxylate] | 53 |  | 106
CCc1ccccc1[C@H]1CC[C@@H](OC[C@H]2[C@@H](NS(C)(=O)=O)CCCN2C(C)=O)CC1 [Example 312, N-((2R,3S)-1-acetyl-2-(((cis-4-(2-ethylphenyl)cyclohexyl)oxy)methyl)-piperidin-3-yl)methanesulfonamide] | 32 | 98 | 
Cc1ccccc1[C@H]1CC[C@@H](OC[C@@H]2NCCC[C@@H]2NS(C)(=O)=O)CC1 [Example 318, N-((2R,3S)-2-(((cis-4-(2-methylphenyl)cyclohexyl)oxy)-methyl)piperidin-3-yl)methanesulfonamide] | 1100 | 99 | 
CC(=O)N1CCC[C@H](NS(C)(=O)=O)[C@@H]1CO[C@H]1CC[C@@H](c2ccccc2C)CC1 [Example 319, N-((2R,3S)-1-acetyl-2-(((cis-4-(2-methylphenyl)cyclohexyl)oxy)-methyl)piperidin-3-yl)methanesulfonamide] | 29 | 106 | 
CS(=O)(=O)N[C@H]1CCCN[C@H]1CO[C@H]1CC[C@@H](c2ccccc2C(F)F)CC1 [Example 320, N-((2R,3S)-2-(((cis-4-(2-(difluoromethyl)phenyl)cyclohexyl)-oxy)methyl)piperidin-3-yl)methanesulfonamide] | 2000 | 74 | 
CC(=O)N1CCC[C@H](NS(C)(=O)=O)[C@@H]1CO[C@H]1CC[C@@H](c2ccccc2C(F)F)CC1 [Example 323, N-((2R,3S)-1-acetyl-2-(((cis-4-(2-(difluoromethyl)phenyl)cyclohexyl)-oxy)methyl)piperidin-3-yl)methanesulfonamide] | 96 | 95 | 

More lines, in order of falling EC50, values ahead:

EC50 [nM] | Emax [%] | Emax (%) | Structure (SMILES)
23 | 105 |  | COc1cccc([C@H]2CC[C@@H](OC[C@H]3[C@@H](NS(C)(=O)=O)CCCN3C(=O)C3CC3)CC2)c1 [Example 304, N-((2R,3S)-1-(cyclopropylcarbonyl)-2-(((cis-4-(3-methoxyphenyl)cyclohexyl)oxy)-methyl)piperidin-3-yl)methanesulfonamide]
15 | 102 |  | CCOC(=O)N1CCC[C@H](NS(C)(=O)=O)[C@@H]1CO[C@H]1CC[C@@H](c2ccccc2)CC1 [Example 303, ethyl (2R,3S)-3-((methylsulfonyl)amino)-2-(((cis-4-phenylcyclohexyl)oxy)methyl)-piperidine-1-carboxylate]
13 | 101 |  | CS(=O)(=O)N[C@H]1CCCN(C(=O)CC(F)(F)F)[C@H]1CO[C@H]1CC[C@@H](c2ccccc2)CC1 [Example 306, N-((2R,3S)-2-(((cis-4-phenylcyclohexyl)oxy)methyl)-1-(3,3,3-trifluoropropanoyl)piperidin-3-yl)methanesulfonamide]
8.9 | 95 |  | CS(=O)(=O)N[C@H]1CCCN(C(=O)CO)[C@H]1CO[C@H]1CC[C@@H](c2ccccc2C(F)(F)F)CC1 [Example 283, N-((2R,3S)-1-glycoloyl-2-(((cis-4-(2-(trifluoromethyl)phenyl)cyclohexyl)oxy)methyl)piperidin-3-yl)methanesulfonamide]
3.4 | 94 |  | COC(=O)N1CCC[C@H](NS(C)(=O)=O)[C@@H]1CO[C@H]1CC[C@@H](c2ccccc2F)CC1 [Example 267, methyl (2R,3S)-2-(((cis-4-(2-fluorophenyl)cyclohexyl)oxy)methyl)-3-((methylsulfonyl)amino)piperidine-1-carboxylate]
3.1 | 106 |  | COC(=O)N1CCC[C@H](NS(=O)(=O)N(C)C)[C@@H]1CO[C@H]1CC[C@@H](c2ccccc2)CC1 [Example 309, methyl (2R,3S)-3-((dimethylsulfamoyl)amino)-2-(((cis-4-phenylcyclohexyl)oxy)methyl)-piperidine-1-carboxylate]
2.9 | 95 |  | COC(=O)N1CCC[C@H](NS(C)(=O)=O)[C@@H]1CO[C@H]1CC[C@@H](c2ccccc2OC)CC1 [Example 277, methyl (2R,3S)-2-(((cis-4-(2-methoxyphenyl)cyclohexyl)oxy)methyl)-3-((methylsulfonyl)amino)piperidine-1-carboxylate]
2.2 | 101 |  | CN(C)S(=O)(=O)N[C@H]1CCCN(C(=O)C2CC2)[C@H]1CO[C@H]1CC[C@@H](c2ccccc2)CC1 [Example 310, N′-((2R,3S)-1-(cyclopropylcarbonyl)-2-(((cis-4-phenylcyclohexyl)oxy)methyl)-piperidin-3-yl)-N,N-dimethylsulfuric diamide]
1.5 | 103 |  | CS(=O)(=O)N[C@H]1CCCN(C(=O)C2CC2)[C@H]1CO[C@H]1CC[C@@H](c2ccccc2F)CC1 [Example 268, N-((2R,3S)-1-(cyclopropylcarbonyl)-2-(((cis-4-(2-fluorophenyl)cyclohexyl)oxy)methyl)piperidin-3-yl)methanesulfonamide]
0.55 |  | 93 | CCNC(=O)N1CCC[C@H](NS(C)(=O)=O)[C@@H]1CO[C@H]1CC[C@@H](c2ccccc2C(F)(F)F)CC1 [Example 282, (2R,3S)-N-ethyl-3-((methylsulfonyl)amino)-2-(((cis-4-(2-(trifluoromethyl)phenyl)cyclohexyl)oxy)methyl)piperidine-1-carboxamide]
